From patent US9980486B2, “Herbicidal quinolines” (Syngenta Participations AG, priority 2014, dated 2018)

These compounds were tested on Setaria faberi (SETFA) (assay: Experiment B1 glasshouse herbicide test, pre- and post-emergence, percentage damage). Conditions: POST Application (post-emergence), applied at 250 g/ha, evaluated after 13 days.
Assay type: in vivo
Protocol: (§1) Seeds of a variety of test species are sown in standard soil in pots (Lolium perenne (LOLPE), Solanum nigrum (SOLNI), Amaranthus retoflexus (AMARE), Setaria faberi (SETFA), Echinochloa crus-galli (ECHCG), Ipomoea hederacea (IPOHE)). After cultivation for one day (pre-emergence) or after 8 days cultivation (post-emergence) under controlled conditions in a glasshouse (at 24/16° C., day/night; 14 hours light; 65% humidity), the plants are sprayed with an aqueous spray solution derived from the formulation of the technical active ingredient in acetone/water (50:50) solution containing 0.5% Tween 20 (polyoxyethelyene sorbitan monolaurate, CAS RN 9005-64-5). […] The test plants are then grown in a glasshouse under controlled conditions in a glasshouse (at 24/16° C., day/night; 14 hours light; 65% humidity) and watered twice daily. After 13 days for pre and post-emergence, the test is evaluated for the percentage damage caused to the plant. The biological activities are shown in the following table on a five point scale (5=80-100%; 4=60-79%; 3=40-59%; 2=20-39%; 1=0-19%).
In the case of `Cn1nnnc1NC(=O)c1cc2cccnc2c(-c2ccccc2)c1[S+](C)[O-]` (stereo not shown) [Compound 1.045], the “percentage damage caused to the plant, five point scale, SETFA” value (“percentage damage caused … SETFA” below) is reported as 5 (5=80-100%).

Same assay, conditions: POST Application (post-emergence, after 8 days cultivation), 1000 g/h, evaluated after 13 days
With `Cn1nnnc1NC(=O)c1cc2cccnc2c(-c2ccccc2)c1C(F)(F)F` [Compound 1.001, N-(1-methyltetrazol-5-yl)-8-phenyl-7-(trifluoromethyl)-quinoline-6-carboxamide] the “percentage damage caused … SETFA” value was 5 (5=80-100%).

Same assay, conditions: PRE Application (pre-emergence), applied at 250 g/ha, evaluated after 13 days
For `Cn1nnnc1NC(=O)c1cc2cccnc2c(-c2ccccc2)c1[S+](C)[O-]` (stereo not shown) [Compound 1.045], the “percentage damage caused … SETFA” value was 1 (1=0-19%).

Same assay, conditions: PRE Application (pre-emergence, after cultivation for one day), 1000 g/h, evaluated after 13 days
With `Cn1nnnc1NC(=O)c1cc2cccnc2c(-c2ccccc2)c1C(F)(F)F` [Compound 1.001, N-(1-methyltetrazol-5-yl)-8-phenyl-7-(trifluoromethyl)-quinoline-6-carboxamide] the “percentage damage caused … SETFA” value was 5 (5=80-100%).

The compounds below were run on Amaranthus retoflexus (AMARE) in the same assay as above. Conditions: POST Application (post-emergence), applied at 250 g/ha, evaluated after 13 days.
Assay type: in vivo
Protocol: as §1
With `Cn1nnnc1NC(=O)c1cc2cccnc2c(-c2ccccc2)c1[S+](C)[O-]` (stereo not shown) [Compound 1.045] the “percentage damage caused to the plant, five point scale, AMARE” value (“percentage damage caused … AMARE” for short) was 5 (5=80-100%).

Same assay, conditions: POST Application (post-emergence, after 8 days cultivation), 1000 g/h, evaluated after 13 days
`Cn1nnnc1NC(=O)c1cc2cccnc2c(-c2ccccc2)c1C(F)(F)F` [Compound 1.001, N-(1-methyltetrazol-5-yl)-8-phenyl-7-(trifluoromethyl)-quinoline-6-carboxamide] was tested, and the “percentage damage caused … AMARE” value was 5 (5=80-100%).

Same assay, conditions: PRE Application (pre-emergence), applied at 250 g/ha, evaluated after 13 days
With `Cn1nnnc1NC(=O)c1cc2cccnc2c(-c2ccccc2)c1[S+](C)[O-]` (stereo not shown) [Compound 1.045] the “percentage damage caused … AMARE” value was 4 (4=60-79%).

Same assay, conditions: PRE Application (pre-emergence, after cultivation for one day), 1000 g/h, evaluated after 13 days
With `Cn1nnnc1NC(=O)c1cc2cccnc2c(-c2ccccc2)c1C(F)(F)F` [Compound 1.001, N-(1-methyltetrazol-5-yl)-8-phenyl-7-(trifluoromethyl)-quinoline-6-carboxamide] the “percentage damage caused … AMARE” value was 5 (5=80-100%).

These compounds were tested on Echinochloa crus-galli (ECHCG) in the same assay as above. Conditions: POST Application (post-emergence), applied at 250 g/ha, evaluated after 13 days.
Assay type: in vivo
Protocol: as §1
In the case of `Cn1nnnc1NC(=O)c1cc2cccnc2c(-c2ccccc2)c1[S+](C)[O-]` (stereo not shown) [Compound 1.045], the “percentage damage caused to the plant, five point scale, ECHCG” value (from here on “percentage damage caused … ECHCG”) is reported as 5 (5=80-100%).

Same assay, conditions: POST Application (post-emergence, after 8 days cultivation), 1000 g/h, evaluated after 13 days
In the case of `Cn1nnnc1NC(=O)c1cc2cccnc2c(-c2ccccc2)c1C(F)(F)F` [Compound 1.001, N-(1-methyltetrazol-5-yl)-8-phenyl-7-(trifluoromethyl)-quinoline-6-carboxamide], the “percentage damage caused … ECHCG” value is reported as 5 (5=80-100%).

Same assay, conditions: PRE Application (pre-emergence), applied at 250 g/ha, evaluated after 13 days
For `Cn1nnnc1NC(=O)c1cc2cccnc2c(-c2ccccc2)c1[S+](C)[O-]` (stereo not shown) [Compound 1.045], the “percentage damage caused … ECHCG” value was 4 (4=60-79%).

Same assay, conditions: PRE Application (pre-emergence, after cultivation for one day), 1000 g/h, evaluated after 13 days
For `Cn1nnnc1NC(=O)c1cc2cccnc2c(-c2ccccc2)c1C(F)(F)F` [Compound 1.001, N-(1-methyltetrazol-5-yl)-8-phenyl-7-(trifluoromethyl)-quinoline-6-carboxamide], the “percentage damage caused … ECHCG” value was 5 (5=80-100%).

The compounds below were run on Solanum nigrum (SOLNI) in the same assay as above. Conditions: POST Application (post-emergence), applied at 250 g/ha, evaluated after 13 days.
Assay type: in vivo
Protocol: as §1
In the case of `Cn1nnnc1NC(=O)c1cc2cccnc2c(-c2ccccc2)c1[S+](C)[O-]` (stereo not shown) [Compound 1.045], the “percentage damage caused to the plant, five point scale, SOLNI” value (from here on “percentage damage caused … SOLNI”) is reported as 5 (5=80-100%).

Same assay, conditions: POST Application (post-emergence, after 8 days cultivation), 1000 g/h, evaluated after 13 days
With `Cn1nnnc1NC(=O)c1cc2cccnc2c(-c2ccccc2)c1C(F)(F)F` [Compound 1.001, N-(1-methyltetrazol-5-yl)-8-phenyl-7-(trifluoromethyl)-quinoline-6-carboxamide] the “percentage damage caused … SOLNI” value was 5 (5=80-100%).

Same assay, conditions: PRE Application (pre-emergence), applied at 250 g/ha, evaluated after 13 days
In the case of `Cn1nnnc1NC(=O)c1cc2cccnc2c(-c2ccccc2)c1[S+](C)[O-]` (stereo not shown) [Compound 1.045], the “percentage damage caused … SOLNI” value is reported as 4 (4=60-79%).

Same assay, conditions: PRE Application (pre-emergence, after cultivation for one day), 1000 g/h, evaluated after 13 days
`Cn1nnnc1NC(=O)c1cc2cccnc2c(-c2ccccc2)c1C(F)(F)F` [Compound 1.001, N-(1-methyltetrazol-5-yl)-8-phenyl-7-(trifluoromethyl)-quinoline-6-carboxamide] was tested, and the “percentage damage caused … SOLNI” value was 5 (5=80-100%).

Each compound was assayed on Ipomoea hederacea (IPOHE) in the same assay as above. Conditions: POST Application (post-emergence), applied at 250 g/ha, evaluated after 13 days.
Assay type: in vivo
Protocol: as §1
`Cn1nnnc1NC(=O)c1cc2cccnc2c(-c2ccccc2)c1[S+](C)[O-]` (stereo not shown) [Compound 1.045] was tested, and the “percentage damage caused to the plant, five point scale, IPOHE” value (from here on “percentage damage caused … IPOHE”) was 5 (5=80-100%).

Same assay, conditions: POST Application (post-emergence, after 8 days cultivation), 1000 g/h, evaluated after 13 days
With `Cn1nnnc1NC(=O)c1cc2cccnc2c(-c2ccccc2)c1C(F)(F)F` [Compound 1.001, N-(1-methyltetrazol-5-yl)-8-phenyl-7-(trifluoromethyl)-quinoline-6-carboxamide] the “percentage damage caused … IPOHE” value was 5 (5=80-100%).

Same assay, conditions: PRE Application (pre-emergence), applied at 250 g/ha, evaluated after 13 days
For `Cn1nnnc1NC(=O)c1cc2cccnc2c(-c2ccccc2)c1[S+](C)[O-]` (stereo not shown) [Compound 1.045], the “percentage damage caused … IPOHE” value was 2 (2=20-39%).

Same assay, conditions: PRE Application (pre-emergence, after cultivation for one day), 1000 g/h, evaluated after 13 days
With `Cn1nnnc1NC(=O)c1cc2cccnc2c(-c2ccccc2)c1C(F)(F)F` [Compound 1.001, N-(1-methyltetrazol-5-yl)-8-phenyl-7-(trifluoromethyl)-quinoline-6-carboxamide] the “percentage damage caused … IPOHE” value was 5 (5=80-100%).

What follows are compounds tested on Lolium perenne (LOLPE) in the same assay as above. Conditions: POST Application (post-emergence), applied at 250 g/ha, evaluated after 13 days.
Assay type: in vivo
Protocol: as §1
For `Cn1nnnc1NC(=O)c1cc2cccnc2c(-c2ccccc2)c1[S+](C)[O-]` (stereo not shown) [Compound 1.045], the “percentage damage caused to the plant, five point scale, LOLPE” value (from here on “percentage damage caused … LOLPE”) was 3 (3=40-59%).

Same assay, conditions: POST Application (post-emergence, after 8 days cultivation), 1000 g/h, evaluated after 13 days
With `Cn1nnnc1NC(=O)c1cc2cccnc2c(-c2ccccc2)c1C(F)(F)F` [Compound 1.001, N-(1-methyltetrazol-5-yl)-8-phenyl-7-(trifluoromethyl)-quinoline-6-carboxamide] the “percentage damage caused … LOLPE” value was 5 (5=80-100%).

Same assay, conditions: PRE Application (pre-emergence), applied at 250 g/ha, evaluated after 13 days
With `Cn1nnnc1NC(=O)c1cc2cccnc2c(-c2ccccc2)c1[S+](C)[O-]` (stereo not shown) [Compound 1.045] the “percentage damage caused … LOLPE” value was 1 (1=0-19%).

Same assay, conditions: PRE Application (pre-emergence, after cultivation for one day), 1000 g/h, evaluated after 13 days
With `Cn1nnnc1NC(=O)c1cc2cccnc2c(-c2ccccc2)c1C(F)(F)F` [Compound 1.001, N-(1-methyltetrazol-5-yl)-8-phenyl-7-(trifluoromethyl)-quinoline-6-carboxamide] the “percentage damage caused … LOLPE” value was 5 (5=80-100%).

What follows are compounds tested on Eriochloa villosa (ERBVI) (assay: Experiment B2 comparative glasshouse herbicide test, pre- and post-emergence, phytotoxicity). Conditions: POST Application (60 g/ha), after 10 days cultivation, evaluated after 14 days.
Assay type: in vivo
Protocol: (§2) A comparative test is performed to compare the efficacy of quinoline compounds of the present invention with quinoline compounds taught in WO2014/037342 and napthyridines taught in WO2013/092834. Seeds of a variety of test species were sown in standard soil in pots. After cultivation for one day (pre-emergence) or after 10 days cultivation (post-emergence) under controlled conditions in a glasshouse (at 24/16° C., day/night; 14 hours light; 65% humidity), the plants were sprayed with an aqueous spray solution derived from the formulation of the technical active ingredient in 0.6 ml acetone and 45 ml formulation solution containing 10.6% Emulsogen EL (Registry number 61791-12-6), 42.2% N-methyl pyrrolidone, 42.2% dipropylene glycol monomethyl ether (CAS RN 34590-94-8) and 0.2% X-77 (CAS RN 11097-66-8). The test plants were then grown in a glasshouse under controlled conditions in a glasshouse (at 24/16° C., day/night; 14 hours light; 65% humidity) and watered twice daily. After 14 days for post-emergence and 21 days for pre-emergence and phytotoxicity evaluated using a five point scale (5=80-100%; 4=60-79%; 3=40-59%; 2=20-39%; 1=0-19%). Test Plants:—Eriochloa villosa (ERBVI), Panicum miliaceum (PANMI).
In the case of `Cn1nnnc1NC(=O)c1cc2cccnc2c(-c2ccccc2)c1C(F)(F)F` [Compound 1.001, N-(1-methyltetrazol-5-yl)-8-phenyl-7-(trifluoromethyl)-quinoline-6-carboxamide], the “phytotoxicity, five point scale, ERBVI” value is reported as 5 (5=80-100%).

Same assay, conditions: PRE Application (250 g/ha), after cultivation for one day, evaluated after 21 days
`Cn1nnnc1NC(=O)c1cc2cccnc2c(-c2ccccc2)c1C(F)(F)F` [Compound 1.001, N-(1-methyltetrazol-5-yl)-8-phenyl-7-(trifluoromethyl)-quinoline-6-carboxamide] was tested, and the “phytotoxicity, five point scale, ERBVI” value was 3 (3=40-59%).

Each compound was assayed on Panicum miliaceum (PANMI) in the same assay as above. Conditions: POST Application (60 g/ha), after 10 days cultivation, evaluated after 14 days.
Assay type: in vivo
Protocol: as §2
`Cn1nnnc1NC(=O)c1cc2cccnc2c(-c2ccccc2)c1C(F)(F)F` [Compound 1.001, N-(1-methyltetrazol-5-yl)-8-phenyl-7-(trifluoromethyl)-quinoline-6-carboxamide] was tested, and the “phytotoxicity, five point scale, PANMI” value was 5 (5=80-100%).

Same assay, conditions: PRE Application (250 g/ha), after cultivation for one day, evaluated after 21 days
For `Cn1nnnc1NC(=O)c1cc2cccnc2c(-c2ccccc2)c1C(F)(F)F` [Compound 1.001, N-(1-methyltetrazol-5-yl)-8-phenyl-7-(trifluoromethyl)-quinoline-6-carboxamide], the “phytotoxicity, five point scale, PANMI” value was 5 (5=80-100%).
